This is an account of results in publication PMC11645189 (ACS infectious diseases, 2024).

In one assay the test system is P. falciparum D6. Conditions: read-out: asexual blood-stage vs. P. falciparum D6 IC50; cited from earlier work.
The test system of the next assay is P. yoelii. In words: in vivo blood-stage efficacy in the P. yoelii mouse model. Also on record: species or system Plasmodium yoelii.
Assay [1] deals with P. falciparum stage V gametocytes. The experiment in a line: gametocytocidal assay using late-stage gametocytes. Conditions: Plasmodium falciparum, read-out: sexual blood-stage vs. P. falciparum stage V gametocytes IC50. The format is cell-based.

In general, IC50 refers to the concentration that inhibits the measured activity by half. Take `O=C1C(O)=C([C@H]2CC[C@H](c3ccc(Cl)cc3)CC2)C(=O)c2ccccc21` [ATQ, Atovaquone]: the IC50 in the assay with P. falciparum D6 was 0.1 nM.

On to `CCN(CC)CCCC(C)Nc1ccnc2cc(Cl)ccc12` (stereo not shown) [CQ, chloroquine], for which the “in vivo %parasitemia reduction vs. controls on day 5” value in the assay on P. yoelii (25 mg/kg/4d oral) and with P. yoelii (50 mg/kg/4d oral) was 100% each time. Take `CN(C)c1ccc2nc3ccc(=[N+](C)C)cc-3sc2c1` [methylene blue]: the IC50 in assay [1] was 143 nM.
